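Assay format: 96-well plates, 48-hour exposure. GI50 marks 50% less growth.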 The source made the active and inactive calls. Cut-off read from the data, not from the text of the source: active = GI50 up to about 1.1 µM and inactive = higher.
Legend:
Assay in all cases: inhibition of tumour cell growth, NCI panel, 48 h
786-0 = tested on: 786-0
CCRF-CEM = tested on: CCRF-CEM
COLO 205 = tested on: COLO 205
EKVX = tested on: EKVX
HL-60 = tested on: HL-60
HOP-62 = tested on: HOP-62
IGROV-1 = tested on: IGROV-1
KM12 = tested on: KM12
LOX IMVI = tested on: LOX IMVI
NCI-H23 = tested on: NCI-H23
OVCAR-3 = tested on: OVCAR-3
OVCAR-5 = tested on: OVCAR-5
SK-MEL-28 = tested on: SK-MEL-28
SK-MEL-5 = tested on: SK-MEL-5
TK-10 = tested on: TK-10
HOP-92 = tested on: HOP-92
OVCAR-4 = tested on: OVCAR-4
NCI-H226 = tested on: NCI-H226

Measured: GI50

O=C(CC(=O)C(F)(F)F)c1csc2ccccc12
inactive: 786-0 36.7 µM | CCRF-CEM 20.4 µM | COLO 205 38.5 µM | EKVX 33.4 µM | HL-60 > 10 µM | HOP-62 22.5 µM | IGROV-1 23.7 µM | KM12 38.9 µM | LOX IMVI 25 µM | NCI-H23 29.4 µM | OVCAR-3 40.9 µM | OVCAR-5 53 µM | SK-MEL-28 14.1 µM | SK-MEL-5 26.9 µM | TK-10 4.28 µM

COC1OC(COCc2ccc(Cl)cc2)C(OCc2ccc(Cl)cc2)C1O (configuration not stated)
inactive: 786-0 15 µM | CCRF-CEM 19.4 µM | COLO 205 19 µM | EKVX 19.4 µM | HL-60 11.6 µM | HOP-62 17.5 µM | HOP-92 11.2 µM | IGROV-1 22.8 µM | KM12 15 µM | LOX IMVI 16.9 µM | NCI-H23 15.8 µM | OVCAR-3 19.7 µM | OVCAR-4 20.6 µM | OVCAR-5 16.1 µM | SK-MEL-28 16.9 µM | SK-MEL-5 15.3 µM | TK-10 25.5 µM

CCCCCCC(C)OC(=O)/C=C(\CC(=O)OC(C)CCCCCC)C(=O)OC(C)CCCCCC (configuration not stated)
inactive: 786-0 > 100 µM | COLO 205 > 100 µM | EKVX > 100 µM | HL-60 > 100 µM | HOP-62 > 100 µM | HOP-92 > 100 µM | IGROV-1 > 100 µM | LOX IMVI > 100 µM | NCI-H226 > 100 µM | NCI-H23 > 100 µM | OVCAR-3 > 100 µM | OVCAR-4 > 100 µM | OVCAR-5 > 100 µM | SK-MEL-28 > 100 µM | SK-MEL-5 > 100 µM | TK-10 > 100 µM

Cc1nc2sccn2c1C(=O)NNC(N)=S
inactive: 786-0 > 100 µM | CCRF-CEM > 100 µM | COLO 205 > 100 µM | EKVX > 100 µM | HL-60 > 100 µM | HOP-62 > 100 µM | HOP-92 77.6 µM | IGROV-1 > 100 µM | KM12 > 100 µM | LOX IMVI > 100 µM | NCI-H226 > 100 µM | NCI-H23 > 100 µM | OVCAR-3 > 100 µM | OVCAR-5 > 100 µM | SK-MEL-28 > 100 µM | SK-MEL-5 > 100 µM | TK-10 > 100 µM

CCOc1ncnc2ccc(Cl)c(I)c12
inactive: 786-0 87.9 µM | CCRF-CEM 70.6 µM | COLO 205 > 100 µM | EKVX 11.2 µM | HL-60 38.8 µM | HOP-62 > 100 µM | IGROV-1 38.7 µM | KM12 91 µM | LOX IMVI 49.4 µM | NCI-H23 79.1 µM | OVCAR-3 > 100 µM | OVCAR-4 56.6 µM | OVCAR-5 > 100 µM | SK-MEL-28 > 100 µM | SK-MEL-5 59.8 µM | TK-10 62.7 µM

O=C1Nc2nc3ccccc3n2N=C2CCCC12 (configuration not stated)
inactive: 786-0 > 100 µM | CCRF-CEM > 100 µM | COLO 205 > 100 µM | EKVX > 100 µM | HOP-62 > 100 µM | IGROV-1 > 100 µM | KM12 > 100 µM | LOX IMVI > 100 µM | NCI-H23 > 100 µM | OVCAR-3 > 100 µM | OVCAR-4 > 100 µM | OVCAR-5 > 100 µM | SK-MEL-28 > 100 µM | SK-MEL-5 > 100 µM | TK-10 > 100 µM

Cc1nc2ccccc2c(=O)n1NC(=S)Nc1ccccc1
inactive: 786-0 > 100 µM | CCRF-CEM > 100 µM | COLO 205 > 100 µM | HL-60 > 100 µM | HOP-62 > 100 µM | HOP-92 85.1 µM | IGROV-1 > 100 µM | KM12 > 100 µM | LOX IMVI > 100 µM | NCI-H226 37.7 µM | NCI-H23 84.3 µM | OVCAR-4 91.2 µM | OVCAR-5 > 100 µM | SK-MEL-28 > 100 µM | SK-MEL-5 > 100 µM | TK-10 > 100 µM

COC12OCCN(CCO)C1=CC(=O)C1(C)N=NC(C)C12 (configuration not stated)
inactive: 786-0 > 100 µM | CCRF-CEM > 100 µM | COLO 205 > 100 µM | EKVX > 100 µM | HOP-92 > 100 µM | IGROV-1 > 100 µM | KM12 > 100 µM | LOX IMVI > 100 µM | NCI-H226 > 100 µM | NCI-H23 > 100 µM | OVCAR-3 > 100 µM | SK-MEL-28 > 100 µM | SK-MEL-5 > 100 µM | TK-10 > 100 µM

COc1ccc2nc(NC(=O)C(=O)CC(=O)c3ccc(Cl)cc3)sc2c1
inactive: 786-0 > 100 µM | CCRF-CEM > 100 µM | COLO 205 > 100 µM | EKVX 48.1 µM | HL-60 > 100 µM | HOP-62 > 100 µM | HOP-92 30.5 µM | IGROV-1 73.1 µM | KM12 35.1 µM | NCI-H226 96.2 µM | NCI-H23 > 100 µM | OVCAR-3 > 100 µM | OVCAR-4 20.9 µM | SK-MEL-28 > 100 µM | SK-MEL-5 > 100 µM | TK-10 > 100 µM

CSCC1CC(c2ccc(Cl)cc2)=NO1 (configuration not stated)
inactive: 786-0 > 100 µM | CCRF-CEM > 100 µM | COLO 205 > 100 µM | EKVX > 100 µM | HL-60 > 100 µM | HOP-62 > 100 µM | HOP-92 > 100 µM | IGROV-1 > 100 µM | KM12 > 100 µM | NCI-H226 > 100 µM | NCI-H23 > 100 µM | OVCAR-3 > 100 µM | OVCAR-4 > 100 µM | OVCAR-5 > 100 µM | SK-MEL-28 > 100 µM | SK-MEL-5 > 100 µM | TK-10 > 100 µM

COC(=O)C(=O)OC1(C(C)=O)CC2(c3ccccc3)OC1(c1ccccc1)c1ccccc12 (configuration not stated)
inactive: 786-0 13.5 µM | CCRF-CEM 33.6 µM | COLO 205 15.8 µM | EKVX 20.7 µM | HL-60 33.5 µM | HOP-62 18.4 µM | HOP-92 14 µM | IGROV-1 16.3 µM | LOX IMVI 15.7 µM | NCI-H226 17.3 µM | NCI-H23 17.2 µM | OVCAR-3 13.9 µM | OVCAR-4 20.2 µM | OVCAR-5 26.1 µM | SK-MEL-5 15 µM | TK-10 29.4 µM

O=c1oc2c3ccc4ccccc4c3n(CCN3CCOCC3)c2c2ccccc12
inactive: 786-0 6.44 µM | CCRF-CEM 1.48 µM | COLO 205 > 100 µM | EKVX 14.8 µM | HL-60 87.9 µM | HOP-62 26.4 µM | HOP-92 > 100 µM | IGROV-1 > 100 µM | KM12 > 100 µM | LOX IMVI 4.06 µM | OVCAR-3 > 100 µM | OVCAR-4 > 100 µM | SK-MEL-28 > 100 µM | TK-10 > 100 µM

O=C1c2ccccc2N2Oc3ccccc3C12c1ccccc1 (configuration not stated)
inactive: 786-0 > 100 µM | CCRF-CEM > 100 µM | COLO 205 > 100 µM | EKVX > 100 µM | HL-60 > 100 µM | HOP-62 > 100 µM | HOP-92 92.7 µM | IGROV-1 > 100 µM | NCI-H226 59.4 µM | NCI-H23 > 100 µM | OVCAR-4 > 100 µM | SK-MEL-28 > 100 µM | SK-MEL-5 > 100 µM
